Measured values as given in ChEMBL document CHEMBL1201862, “PubChem BioAssay data set” (2004).
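Exposure lasted 48 hours, with cells grown in 96-well plates and compounds tested at five concentrations. GI50: concentration for 50% inhibition of growth.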 Activity calls are given as the source filed them. Rule as the data show it: active = GI50 up to about 1.1 µM and inactive = higher.

What was measured:
Test in all cases: inhibition of tumour cell growth, NCI panel, 48 h
NCI-H522 = test system: NCI-H522
UO-31 = test system: UO-31
MDA-MB-435 = test system: MDA-MB-435
A549 = test system: A549
HL-60 = test system: HL-60
SF-539 = test system: SF-539
M14 = test system: M14
HOP-92 = test system: HOP-92
SN12C = test system: SN12C
SF-295 = test system: SF-295
RXF 393 = test system: RXF 393
SK-MEL-28 = test system: SK-MEL-28
A498 = test system: A498
ACHN = test system: ACHN
SNB-75 = test system: SNB-75
IGROV-1 = test system: IGROV-1
K562 = test system: K562
DU-145 = test system: DU-145
UACC-62 = test system: UACC-62
OVCAR-3 = test system: OVCAR-3

For `O=C1c2cccc([N+](=O)[O-])c2C(=O)N1c1ncn[nH]1`, the GI50 (NCI-H522) was > 100 µM (inactive), the GI50 (UO-31) was > 100 µM (inactive) and the GI50 (MDA-MB-435) was > 100 µM (inactive). The GI50 (A549) was > 100 µM (inactive), the GI50 (HL-60) was > 100 µM (inactive) and the GI50 (SF-539) was 0.822 µM (active). For the same compound, the GI50 (M14) was > 100 µM (inactive), the GI50 (HOP-92) was 21.4 µM (inactive) and the GI50 (SN12C) was > 100 µM (inactive). The GI50 (SF-295) was 51.5 µM (inactive), the GI50 (RXF 393) was 63.2 µM (inactive) and the GI50 (SK-MEL-28) was > 100 µM (inactive). The GI50 (A498) was 53 µM (inactive), the GI50 (ACHN) was > 100 µM (inactive) and the GI50 (SNB-75) was 23.6 µM (inactive). The GI50 (IGROV-1) was > 100 µM (inactive), the GI50 (K562) was > 100 µM (inactive) and the GI50 (DU-145) was > 100 µM (inactive). For the same compound, the GI50 (UACC-62) was > 100 µM (inactive) and the GI50 (OVCAR-3) was > 100 µM (inactive).

In the case of `N=C(N)N/N=C/c1c(-c2ccc([N+](=O)[O-])cc2)nc2sc(Cl)cn12`, the GI50 (NCI-H522) is reported as 1.48 µM (inactive), the GI50 (UO-31) is reported as 0.979 µM (active) and the GI50 (MDA-MB-435) is reported as 0.902 µM (active). The GI50 (A549) was 0.593 µM (active), the GI50 (HL-60) was 1.38 µM (inactive) and the GI50 (SF-539) was 1.89 µM (inactive). For the same compound, the GI50 (M14) was 1.37 µM (inactive), the GI50 (HOP-92) was 1.73 µM (inactive) and the GI50 (SN12C) was 1.31 µM (inactive). For the same compound, the GI50 (SF-295) was 1.17 µM (inactive), the GI50 (RXF 393) was 0.67 µM (active) and the GI50 (SK-MEL-28) was 1.69 µM (inactive). The GI50 (A498) was 0.873 µM (active), the GI50 (ACHN) was 1.27 µM (inactive) and the GI50 (SNB-75) was 0.593 µM (active). For the same compound, the GI50 (IGROV-1) was 1.78 µM (inactive), the GI50 (K562) was 0.239 µM (active) and the GI50 (DU-145) was 1.11 µM (active). The GI50 (UACC-62) was 1.6 µM (inactive) and the GI50 (OVCAR-3) was 1.27 µM (inactive).

For `Cc1cc(S(=O)(=O)Nc2nnc3c4ccccc4cnn23)c(S)cc1Cl`, the GI50 (NCI-H522) was > 88.5 µM (inactive), the GI50 (UO-31) was > 91.2 µM (inactive) and the GI50 (MDA-MB-435) was > 84.3 µM (inactive). The GI50 (A549) was 70.5 µM (inactive), the GI50 (HL-60) was > 100 µM (inactive) and the GI50 (SF-539) was > 56.9 µM (inactive). The GI50 (M14) was > 100 µM (inactive), the GI50 (HOP-92) was > 49.9 µM (inactive) and the GI50 (SN12C) was > 100 µM (inactive). For the same compound, the GI50 (SF-295) was 47.5 µM (inactive), the GI50 (RXF 393) was > 100 µM (inactive) and the GI50 (SK-MEL-28) was > 100 µM (inactive). The GI50 (A498) was > 85.1 µM (inactive), the GI50 (ACHN) was > 100 µM (inactive) and the GI50 (SNB-75) was 69.8 µM (inactive). For the same compound, the GI50 (IGROV-1) was 39.2 µM (inactive), the GI50 (K562) was > 100 µM (inactive) and the GI50 (DU-145) was 61.9 µM (inactive). For the same compound, the GI50 (UACC-62) was 46.9 µM (inactive) and the GI50 (OVCAR-3) was > 86.3 µM (inactive).

With `O=C(O)c1ccc(Nc2ccnc3cc(Cl)ccc23)cc1O` the GI50 (NCI-H522) was > 100 µM (inactive), the GI50 (UO-31) was > 100 µM (inactive) and the GI50 (MDA-MB-435) was > 100 µM (inactive). The GI50 (A549) was > 100 µM (inactive), the GI50 (HL-60) was > 100 µM (inactive) and the GI50 (SF-539) was 11.1 µM (inactive). The GI50 (M14) was > 100 µM (inactive), the GI50 (HOP-92) was > 100 µM (inactive) and the GI50 (SN12C) was > 100 µM (inactive). The GI50 (SF-295) was > 100 µM (inactive), the GI50 (RXF 393) was > 100 µM (inactive) and the GI50 (SK-MEL-28) was > 100 µM (inactive). For the same compound, the GI50 (A498) was > 100 µM (inactive), the GI50 (ACHN) was > 100 µM (inactive) and the GI50 (SNB-75) was > 100 µM (inactive). For the same compound, the GI50 (IGROV-1) was > 100 µM (inactive), the GI50 (K562) was > 100 µM (inactive) and the GI50 (DU-145) was > 100 µM (inactive). For the same compound, the GI50 (UACC-62) was > 100 µM (inactive) and the GI50 (OVCAR-3) was > 100 µM (inactive).

With `C[C@H](CCC(=O)NCCS(=O)(=O)O)[C@H]1CC[C@H]2[C@@H]3CC[C@@H]4C[C@H](O)CC[C@]4(C)[C@H]3CC[C@]12C` the GI50 (NCI-H522) was > 100 µM (inactive), the GI50 (UO-31) was > 100 µM (inactive) and the GI50 (MDA-MB-435) was > 100 µM (inactive). The GI50 (A549) was > 100 µM (inactive), the GI50 (HL-60) was > 100 µM (inactive) and the GI50 (SF-539) was > 100 µM (inactive). For the same compound, the GI50 (M14) was > 100 µM (inactive), the GI50 (HOP-92) was > 100 µM (inactive) and the GI50 (SN12C) was > 100 µM (inactive). The GI50 (SF-295) was > 100 µM (inactive), the GI50 (RXF 393) was > 100 µM (inactive) and the GI50 (SK-MEL-28) was > 100 µM (inactive). For the same compound, the GI50 (A498) was > 100 µM (inactive), the GI50 (ACHN) was > 100 µM (inactive) and the GI50 (SNB-75) was > 100 µM (inactive). The GI50 (IGROV-1) was > 100 µM (inactive), the GI50 (K562) was > 100 µM (inactive) and the GI50 (DU-145) was > 100 µM (inactive). For the same compound, the GI50 (UACC-62) was > 100 µM (inactive) and the GI50 (OVCAR-3) was > 100 µM (inactive).

`CO[C@H]1C[C@](C)(O)Cc2cc3c(c(O)c21)C(=O)c1c(O)cc2c(c1C3=O)O[C@@H]1O[C@@]2(C)[C@H](O)[C@@H](N(C)C)[C@@H]1O` was tested, and the GI50 (NCI-H522) was 1.04 µM (active), the GI50 (UO-31) was 1.74 µM (inactive) and the GI50 (MDA-MB-435) was 1.73 µM (inactive). The GI50 (A549) was 0.0908 µM (active), the GI50 (HL-60) was 0.115 µM (active) and the GI50 (SF-539) was 0.851 µM (active). For the same compound, the GI50 (M14) was 1.16 µM (inactive), the GI50 (HOP-92) was 0.362 µM (active) and the GI50 (SN12C) was 0.499 µM (active). For the same compound, the GI50 (SF-295) was 0.284 µM (active), the GI50 (RXF 393) was 1.17 µM (inactive) and the GI50 (SK-MEL-28) was 5.82 µM (inactive). For the same compound, the GI50 (A498) was 0.968 µM (active), the GI50 (ACHN) was 0.279 µM (active) and the GI50 (SNB-75) was 0.653 µM (active). For the same compound, the GI50 (IGROV-1) was 2.32 µM (inactive), the GI50 (K562) was 1.12 µM (inactive) and the GI50 (DU-145) was 0.536 µM (active). For the same compound, the GI50 (UACC-62) was 0.738 µM (active) and the GI50 (OVCAR-3) was 2.38 µM (inactive).
